Experimental findings from patent US20070117842A1, “Polymorph of 4-[3-chloro-4-(cyclopropylaminocarbonyl)aminophenoxy]-7-methoxy-6- quinolinecarboxamide and a process for the preparation of the same” (priority 2003, published 2007) are described below.

A short description of data set [1]: Solid stability test (1 month storage; appearance, water content, HPLC purity and residual ratio, powder X-ray diffraction). It counts as physicochemical. The conditions noted are these: for impurity / remaining percent: HPLC; for water content: Karl Fischer method. The protocol:
(Solid Stability Test) The solid stabilities of the crystal obtained in Examples 1d and 2d were evaluated. […] The water content measurement and the powder X-ray diffraction measurement were carried out by the same method as described in the hygroscopicity test by the dessiccator method. Further, the purity test and the residual ratio (percent) measurement by HPLC were carried out by the same method as described above, except for the condition that the column temperature was 35° C. In this connection, the residual ratio (percent) (measurement by HPLC) was defined as stated bellow by using the crystal stored under the condition C as the standard and its solution as the standard solution. Remaining percent (%)=[(Peak area of the sample solution)×(Weighed amount of the standard: in terms of a dehydrate (mg))]×100/[(Peak area of the standard solution)×(Weighed amount of the sample: in terms of a dehydrate (mg))] [table]

A short description of data set [2]: Solubility test (pH 3, Britton Robinson buffer). The class given is physicochemical. The settings on record: for solubility (concentration in filtrate): pH 3 Britton Robinson buffer, 25-26° C.; for pH of the filtrate: solubility test. The protocol: (Solubility Test) The solubilities (pH 3) of the crystals obtained in Examples 1d and 2d were evaluated by the following method. About 3 mg of the crystals obtained in Examples 1d and 2d were weighed and each of them was put in a 10 mL screw-capped transparent test tube. 5 mL of a buffer solution (Britton Robinson buffer, pH 3.091, ionic strength I=0.3) was added to each of the test tubes to prepare the test solutions. The test tubes were wrapped with aluminum foil to shield from light, and shaken by a shaker (MS-1 Iuchi Seieido) in the following conditions. Temperature: 25-26° C. (a temperature in a laboratory) Shaking frequency: 150 times/minute Shaking time: 3 hours and 5 hours Respective sample solutions after shaking were filtered ([…], Sample LCR13-LG, Millipore Co.), and each 1 mL of the initial filtrate was discarded. Each of accurately pipetted 1 mL of the filtrates was put in a 10 mL test tube, to which accurately pipetted 1 mL of a mixed solution of water/acetonitrile (1:1 (v/v)) was added to prepare a solution for the HPLC analysis. The HPLC conditions were as follows. A standard solution for the HPLC analysis were prepared as follows. About 10 mg of the crystals obtained in Example 2d was accurately weighed, to which a mixed solution of water/acetonitrile/ammonium acetate (100:100:0.1, v/v/w) was added to give accurate 100 mL to prepare a stock standard solution. Accurately pipetted 5 mL of the stock control solution was added with a mixed solution of water/acetonitrile/ammonium acetate (100:100:0.1, v/v/w) to give accurate 25 mL to prepare the standard solution for the HPLC analysis. Regarding a blank solution, a mixed solution of water/acetonitrile/ammonium acetate (100:100:0.1, v/v/w) was used. The standard solution and respective filtrates were analyzed by HPLC to measure concentrations (mg/mL) of 4-(3-chloro-4-(cyclopropylaminocarbonyl)aminophenoxy)-7-methoxy-6-quinolinecarboxamide in respective filtrates according to the following equation. Concentration (mg/mL)=(Concentration in the standard solution, mg/mL)×[(Peak area in each filtrate)×2/(Peak area in the standard solution)] As is evident from the results, there was no significant difference in the solubility at pH 3 between the polymorphs (A) and (B).

Data set [3] in a line: Crystal transition between polymorphs in heated suspension. The class given is physicochemical. The conditions noted are these: 60° C., 3 hours, listed as polymorph (B). As to the method:
These suspensions were filtered to collect 4-(3-chloro-4-(cyclopropylaminocarbonyl)aminophenoxy)-7-methoxy-6-quinolinecarboxamide (184 to 266 mg).
These suspensions were filtered to collect 4-(3-chloro-4-(cyclopropylaminocarbonyl)aminophenoxy)-7-methoxy-6-quinolinecarboxamide (141 to 256 mg).

Data set [4] is described as follows: Hygroscopicity test by a desiccator method. The class given is physicochemical. The conditions noted are these: for water content: Karl Fischer method. The protocol: (Hygroscopicity Test by a Desiccator Method) The hygroscopicities of the crystals obtained in Examples 1d and 2d were evaluated by a desiccator method. […] Weighing bottles (in opened caps) were used for containers, and MIR-552 (Sanyo) was used for a storage apparatus. [table] The powder X-ray diffraction analysis was carried out under the following conditions. The water content was measured (by the Karl Fischer method) by using the following apparatus and reagents.

Data set [5] in a line: Hygroscopicity test by microbalance method. It counts as physicochemical. The conditions noted are these: 25° C. As to the method: (Hygroscopicity Test by Microbalance Method)
The higroscopicities of the crystals obtained in Examples 1d and 2d were evaluated by microbalance method. An apparatus and conditions employed were as follows.
Apparatus: Integrated microbalance system MB 300W (VTI Co.)
Relative humidity step: 5 to 95 by 5
Equilibrium Criteria: 0.0050 wt % (5 minutes)
Maximum equilibrium time: 120 minutes
The results of measuring the higroscopicities of the crystals obtained in Examples 1d and 2d by microbalance method are shown in FIGS. 13 and 14, respectively. As is seen from the results shown in these figures, within the range of 5-95% of relative humidity, the polymorph (A) gave a weight change of 1% and the polymorph (B) gave that of 1.5%.

Data set [6] concerns small cell lung cancer cell line H-526 expressing c-Kit kinase. Description: Effect on cell proliferation stimulated by SCF. The class given is cell-based. The settings on record: Homo sapiens, NCI-H526; H-526 cells, SCF stimulation, 7th day, Cell Counting Kit-8; read-out: IC50 (concentration required for 50% inhibition of the cell proliferation). As to the method: After culturing, H-526 cells were washed with PBS three times and were suspended in an RPMI1640 medium containing 0.1% BSA (Sigma Corporation) (hereinafter abbreviated as “BSA-RPMI1640”) at 1.0×10^5 cells/ml. […] After color development, the absorbance of each well was determined using a MTP-32 plate reader (Colona Electric Co., Ltd.) at a measuring wavelength of 450 nm and at a reference wavelength of 660 nm. The absorbance of each well was subtracted by the absorbance of the well without addition of SCF, and then the ratio of the absorbance of the well with addition of the test substance to the ratio of the absorbance of the well without addition of the test substance was determined. This ratio was used to calculate the concentration of the test substance required for 50% inhibition of the cell proliferation (IC50).

Where [7] appears, read: condition C: −20° C., brown screw vial, closed, 1 month.
[8] abbreviates: condition D: 25° C., 1000lx, shading with aluminum foil, quartz tube, closed, 1 month.
The mark [9] stands for this setting: condition E: 25° C., 1000lx, quartz tube, closed, 1 month.
The mark [10] stands for this setting: condition F: 40° C., 75% RH, brown screw vial, open, 1 month.
Where [11] appears, read: condition G: 60° C., brown screw vial, closed, 1 month.
Where [12] appears, read: condition A: 25° C., 75% relative humidity, stored 1 week.
Where [13] appears, read: condition B: 25° C., 93% relative humidity, stored 1 week.
[14] abbreviates: desiccator method, 25° C., 75% or 93% relative humidity, 1 week.

Values after ≈ are worked out from the molar mass of the structure shown.

Regarding `COc1cc2nccc(Oc3ccc(NC(=O)NC4CC4)c(Cl)c3)c2cc1C(N)=O` [Example 2d, 4-(3-chloro-4-(cyclopropylaminocarbonyl)aminophenoxy)-7-methoxy-6-quinolinecarboxamide], the appearance result in data set [1] (setting [7]), in data set [1] (setting [8]), in data set [1] (setting [9]), in data set [1] (setting [10]), in data set [1] (setting [11]) and in data set [1] (prior to storage) was “pale brownish” each time. Further, the appearance entry in data set [4] (setting [12]), in data set [4] (setting [13]) and in data set [4] (prior to storage) was “pale brownish” in each case. Further, the impurity in data set [1] (setting [7]) is recorded as 1.55%; in data set [1] (setting [8]), 1.54%; in data set [1] (setting [9]), 1.55%; in data set [1] (setting [10]) it was 1.54%; in data set [1] (setting [11]), 1.53%; in data set [1] (prior to storage) it was 1.53%. For the same molecule, the remaining percent result is reported as “(100) %” in data set [1] (condition C: −20° C., brown screw vial, closed, 1 month, condition C is the standard); 101.8% in data set [1] (condition D: 25° C., 1000lx, shading with aluminum foil, quartz tube, closed, 1 month, vs condition C standard); 100.5% in data set [1] (condition E: 25° C., 1000lx, quartz tube, closed, 1 month, vs condition C standard); 100.4% in data set [1] (condition F: 40° C., 75% RH, brown screw vial, open, 1 month, vs condition C standard); 101.3% in data set [1] (condition G: 60° C., brown screw vial, closed, 1 month, vs condition C standard). For the same molecule, the water content in data set [1] (setting [7]) is listed as 0.4 wt %; in data set [1] (setting [8]), 0.3 wt %; in data set [1] (setting [9]) it was 0.3 wt %; in data set [1] (setting [10]), 0.4 wt %; in data set [1] (setting [11]) it was 0.5 wt %; in data set [1] (prior to storage), 0.5 wt %. In addition, the water content in data set [4] (setting [12]), in data set [4] (setting [13]) and in data set [4] (prior to storage) was 0.5 wt % in each case. Further, the “change on storage (solid stability)” value in data set [1] (stored for 1 month, any storage conditions) is reported as “no change was observed”. The “solubility (concentration in filtrate)” value in data set [2] (shaking time 3 hours) was 0.062 mg/mL (≈ 145 µM); in data set [2] (shaking time 5 hours), 0.054 mg/mL (≈ 127 µM). Moreover, the “pH of the filtrate” value amounted to 3.109 in data set [2] (shaking time 3 hours) and 3.106 in data set [2] (shaking time 5 hours). Besides, in data set [3] (300 mg in DMSO (1.7 mL) and 33% (v/v) acetone-water (0.17, 0.34, 0.51 or 0.85 mL)), the “crystal form after suspension” value is listed as “all of them remained the polymorph (B)”. Further, the “dissolution in DMSO” value in data set [3] (300 mg in DMSO (1.7 mL), without 33% acetone-water) is listed as “most of the polymorph (B) dissolved”. Besides, the crystal transition entry in data set [4] (setting [14]) was “no perceivable crystal transition”. Besides, the hygroscopicity result in data set [4] (setting [14]) is recorded as “no perceivable hygroscopicitiy”; in data set [5] (microbalance method, 5-95% relative humidity) it was “no perceivable hygroscopisity”. Besides, in data set [5] (within the range of 5-95% of relative humidity, listed as polymorph (B)), the weight change was determined as 1.5%.
Regarding `CCCNC(=O)Nc1ccc(Oc2ncnc3cc(OC)c(OC)cc23)cc1Cl` [KRN633, reference compound], in data set [6], the IC50 was 301 nM.
